EC50 data for 2 compounds are collected here from publication PMC12484785, “Structure and activation mechanism of human sweet taste receptor” (Cell Research, 2025).

Experiment [1] has as its target T1, TAS1R2 (Homo sapiens, UniProt Q8TE23).
T1 construct: TAS1R2/TAS1R3 heterodimer; with TAS1R3 (human)
T1 sequence (Q8TE23 20-839): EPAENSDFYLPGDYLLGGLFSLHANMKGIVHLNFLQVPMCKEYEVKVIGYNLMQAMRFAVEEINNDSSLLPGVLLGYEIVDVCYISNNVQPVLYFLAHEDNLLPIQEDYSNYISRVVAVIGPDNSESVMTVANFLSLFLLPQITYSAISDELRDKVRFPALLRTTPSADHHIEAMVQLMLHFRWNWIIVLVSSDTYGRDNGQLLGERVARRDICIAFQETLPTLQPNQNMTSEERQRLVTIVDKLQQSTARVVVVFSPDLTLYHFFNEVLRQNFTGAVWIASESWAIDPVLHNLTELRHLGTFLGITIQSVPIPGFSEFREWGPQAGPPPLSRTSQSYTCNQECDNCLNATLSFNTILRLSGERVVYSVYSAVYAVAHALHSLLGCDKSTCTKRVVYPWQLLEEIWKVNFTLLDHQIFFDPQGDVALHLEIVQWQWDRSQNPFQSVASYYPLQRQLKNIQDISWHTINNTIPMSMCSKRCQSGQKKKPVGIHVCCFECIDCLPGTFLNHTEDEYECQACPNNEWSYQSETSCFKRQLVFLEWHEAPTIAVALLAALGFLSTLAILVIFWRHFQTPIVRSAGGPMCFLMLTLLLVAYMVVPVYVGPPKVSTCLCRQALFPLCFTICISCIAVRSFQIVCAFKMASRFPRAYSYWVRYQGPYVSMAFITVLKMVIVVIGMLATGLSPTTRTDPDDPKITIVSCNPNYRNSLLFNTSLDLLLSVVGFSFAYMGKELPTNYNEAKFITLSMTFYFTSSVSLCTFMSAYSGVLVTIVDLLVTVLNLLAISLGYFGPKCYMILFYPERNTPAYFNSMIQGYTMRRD
T1 sequence (Q7RTX0 21-852 partner): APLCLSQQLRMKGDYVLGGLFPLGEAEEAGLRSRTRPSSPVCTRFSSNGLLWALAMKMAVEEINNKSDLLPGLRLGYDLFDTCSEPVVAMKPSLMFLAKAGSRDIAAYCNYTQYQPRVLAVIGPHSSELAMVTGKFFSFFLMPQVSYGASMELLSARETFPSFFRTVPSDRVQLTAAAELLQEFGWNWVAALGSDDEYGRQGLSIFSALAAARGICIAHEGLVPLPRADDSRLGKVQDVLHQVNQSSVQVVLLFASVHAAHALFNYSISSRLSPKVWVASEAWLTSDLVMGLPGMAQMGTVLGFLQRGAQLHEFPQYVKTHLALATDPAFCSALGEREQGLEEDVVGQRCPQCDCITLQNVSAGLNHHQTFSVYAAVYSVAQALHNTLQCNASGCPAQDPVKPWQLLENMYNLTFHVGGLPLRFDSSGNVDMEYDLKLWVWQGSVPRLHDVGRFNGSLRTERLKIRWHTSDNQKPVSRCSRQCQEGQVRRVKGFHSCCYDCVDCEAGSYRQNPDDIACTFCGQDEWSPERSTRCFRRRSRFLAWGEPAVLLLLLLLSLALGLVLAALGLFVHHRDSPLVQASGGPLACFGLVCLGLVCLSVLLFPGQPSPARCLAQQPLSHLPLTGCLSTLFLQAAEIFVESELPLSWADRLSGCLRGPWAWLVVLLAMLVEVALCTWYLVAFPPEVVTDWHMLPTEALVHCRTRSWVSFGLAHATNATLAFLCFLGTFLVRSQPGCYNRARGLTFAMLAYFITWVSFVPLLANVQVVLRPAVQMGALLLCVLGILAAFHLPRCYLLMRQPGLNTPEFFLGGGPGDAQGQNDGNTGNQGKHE
The experiment is described as follows: cell-based calcium imaging of the expressed human/human receptor.

Experiment [2] addresses T2, TAS1R2 (Homo sapiens, UniProt Q8TE23).
T2 construct: VFT domain of TAS1R2 in the TAS1R2/TAS1R3 heterodimer; with TAS1R3 (human; also mouse TAS1R3)
T2 sequence (Q8TE23 22-839): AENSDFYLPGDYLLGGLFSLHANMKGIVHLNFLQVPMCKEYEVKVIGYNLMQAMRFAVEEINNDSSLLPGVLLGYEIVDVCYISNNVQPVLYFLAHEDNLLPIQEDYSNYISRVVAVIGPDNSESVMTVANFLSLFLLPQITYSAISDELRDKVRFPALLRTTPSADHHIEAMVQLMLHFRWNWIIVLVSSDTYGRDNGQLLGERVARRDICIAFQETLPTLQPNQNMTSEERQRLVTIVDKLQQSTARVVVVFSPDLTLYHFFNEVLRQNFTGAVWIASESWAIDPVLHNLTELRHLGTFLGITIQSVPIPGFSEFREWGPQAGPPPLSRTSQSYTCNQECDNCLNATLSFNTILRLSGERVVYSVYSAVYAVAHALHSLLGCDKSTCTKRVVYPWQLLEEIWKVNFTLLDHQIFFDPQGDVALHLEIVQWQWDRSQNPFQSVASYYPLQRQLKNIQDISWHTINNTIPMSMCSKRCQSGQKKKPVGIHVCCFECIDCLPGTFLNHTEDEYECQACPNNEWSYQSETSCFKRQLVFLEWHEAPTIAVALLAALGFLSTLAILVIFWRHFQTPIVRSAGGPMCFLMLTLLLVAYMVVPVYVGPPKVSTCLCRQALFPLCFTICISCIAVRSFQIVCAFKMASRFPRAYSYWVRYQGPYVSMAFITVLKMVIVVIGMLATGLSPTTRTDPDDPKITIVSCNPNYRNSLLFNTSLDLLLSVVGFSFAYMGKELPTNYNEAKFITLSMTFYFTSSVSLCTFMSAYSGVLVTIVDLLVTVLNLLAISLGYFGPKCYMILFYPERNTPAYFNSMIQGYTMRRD
T2 sequence (Q7RTX0 21-852 partner): T1 sequence (Q7RTX0 21-852 partner)
The experiment can be described thus: cryo-EM structures of human/human and human/mouse receptor with advantame; EC50 from cell-based calcium imaging (human/human). From the text:
cryo-EM structures of human/human and human/mouse receptor with advantame; EC50 from cell-based calcium imaging (human/human) on TAS1R2 | Advantame also yields well-defined ligand density in the TAS1R2 VFT pocket of both human/mouse and human/human receptors

As a reminder, the EC50 is the concentration giving half of the maximal effect.

With `COC(=O)[C@H](Cc1ccccc1)NC(=O)[C@H](CC(=O)O)NCCC(C)(C)C` [neotame], the EC50 on TAS1R2 [1] is 2700 nM. For the compound `COC(=O)[C@H](Cc1ccccc1)NC(=O)[C@H](CC(=O)O)NCCCc1ccc(OC)c(O)c1` [Adv, advantame], the EC50 at TAS1R2 [2] was 900 nM.
